Data published in patent publication US4532327A, “Sesbanimide and the use thereof in treating leukemic tumors” (priority 1983, dated 1985).
Like-named read-outs stand apart in the source and are kept apart here.

Legend:
[1] = test system: lymphocytic leukemia cells of the strain P388 (PS tumors); test: lymphocytic leukemia P388 (PS tumors) implanted in mice (NCI Protocol 1.200); format: in vivo, mice (CDF1); settings: active if ≥125%
Protocol: As previously mentioned, the fractionation of Example 1 was also guided by assaying the effectiveness of the various fractions against lymphocytic leukemia cells of the strain P388 (PS tumors) implanted in mice. These assays were made according to the National Cancer Institute Protocol 1.200 described in Geran et al., supra, page 9. Starting 24 hr. after the tumor implantation, previously determined dosages of each fraction were injected intraperitoneally once a day for 9 days. Survival time of treated leukemic mice is compared to that of untreated leukemic mice (T/C×100). A T/C value of 100% indicated no activity. A T/C value greater than 100% means that the treated mice are surviving longer than the control mice. A fraction giving a T/C value greater than 125% is indicative of activity as defined by the NCI Protocols, above. Activities of the fractions comprising the pure or substantially pure sesbanimide isolates as reported in Table II establish the utility of the compounds as antileukemic agents.
(§1) ^1 All hosts were type CDF1 mice. Six replicate mice were tested
(§2) ^2 The doses are reported as micrograms per kilogram of host body
(§3) weight per injection. The injection vehicle in all cases was water.
(§4) ^3 T/C = mean survival time of test animals/mean survival time of
(§5) control animals; 125% or above considered active.

lymphoid leukemia L1210 = lymphoid leukemia L1210 in mice (NCI Protocol 1.100); format: in vivo; settings: female CDF1 mice, active if ≥125%
Protocol: This assay was conducted in accordance with the NCI Protocol 1.100 described in Geran et al., supra, page 7. Starting 24 hr. after the tumor implantation, predetermined doses of the compound were injected intraperitoneally once a day for 9 days.
as §1, §2, §3, §4, §5

KB Cell Culture = format: cell-based; settings: Example 1 fractions, active if ED50 ≤30 μg./ml.
Protocol: Chemotherapeutic Activity. The chemotherapeutic activities of the fractions obtained in the isolation procedure of Example 1 were determined in part by a KB Cell Culture Screen in accordance with the National Cancer Institute Protocol 1.600 [Geran et al., Cancer Chemother, Rep., Part 3, 3(2): 17 (1972)]. […] Such a dose is referred to as ED50 and activity is indicated for ED50 levels of ≤30 μg./ml.

[2] = test system: lymphocytic leukemia P388 (PS); settings: attributed in U.S. Pat. No. 4,200,639 (disclaimed); cited from earlier work
KB cell = settings: attributed in U.S. Pat. No. 4,200,639 (disclaimed); cited from earlier work

Which T/C ([1]; female CDF1 mice, 2.00 μg./kg./inj. i.p. once a day for 9 days) does the source give for `C=C1COC(O)(C2OCOC(C3CC(=O)NC(=O)C3)C2O)C1C` (stereo not drawn) [Sesbanimide A] here?
The T/C was 119%.

What about the T/C ([1]; female CDF1 mice, 4.00 μg./kg./inj. i.p. once a day for 9 days) of the same compound?
Its T/C is 119%.

And the T/C ([1]; female CDF1 mice, 8.00 μg./kg./inj. i.p. once a day for 9 days)?
Its T/C is 140%.

What about the T/C ([1]; female CDF1 mice, 16.00 μg./kg./inj. i.p. once a day for 9 days) of the same compound?
Its T/C is 149%.

What about the T/C ([1]; female CDF1 mice, 32.00 μg./kg./inj. i.p. once a day for 9 days) of the same compound?
Its T/C is 181%.

And the T/C (lymphoid leukemia L1210; 16.00 μg./kg./inj. i.p. once a day for 9 days)?
The T/C was 116%.

And the T/C (lymphoid leukemia L1210; 32.00 μg./kg./inj. i.p. once a day for 9 days)?
The T/C was 135%.

And the T/C (lymphoid leukemia L1210; 64.00 μg./kg./inj. i.p. once a day for 9 days)?
The T/C was “toxic”.

And the “ED50 (dose that inhibits growth to 50% of control growth by 3 days after drug addition)” value (KB Cell Culture; listed as K443, 4320 min)?
The value was 0.0077 µg/mL.

What does the source list for `C=C1COC(O)(C2OCOC(C3CC(=O)NC(=O)C3)C2O)C1C` (stereo not drawn) [Sesbanimide B]?
T/C ([1]; male CDF1 mice, 1.87 μg./kg./inj. i.p. once a day for 9 days): 157%; T/C ([1]; male CDF1 mice, 3.75 μg./kg./inj. i.p. once a day for 9 days): 161%; T/C ([1]; male CDF1 mice, 7.50 μg./kg./inj. i.p. once a day for 9 days): toxic; ED50 (dose that inhibits growth to 50% of control growth by 3 days after drug addition) (KB Cell Culture; listed as K442, 4320 min): 0.068 µg/mL

Which results are given for `O=C1NC(=O)[C@@]2(CC[C@@H](O)C2)c2ccncc21` [sesbanine]?
apparent activity in the PS tumor system [2]: result of a heretofore unidentified impurity; apparent activity in the KB cell screen (KB cell): result of a heretofore unidentified impurity
